From patent US10392368B2, “Pyrazolo and triazolo bicyclic compounds as JAK kinase inhibitors” (THERAVANCE BIOPHARMA R&D IP, LLC, priority 2017, dated 2019)
Read-outs that look alike come from different tables or passages of the source.

Experiments:
[1] = test system: IL-2 stimulated pSTAT5 in Tall-1 T cells; assay: Cellular JAK3 potency assay: inhibition of IL-2 stimulated pSTAT5 in Tall-1 T cells; assay type: cell-based, human; details: for IC50: Homo sapiens, read-out: Tall-1 (pIC50) (converted); for Tall-1 (pIC50): IL-2 stimulated pSTAT5 in Tall-1 T cells
Procedure: The potency of test compounds for inhibition of interleukin-2 (IL-2) stimulated STAT5 phosphorylation was measured in the Tall-1 human T cell line (DSMZ) using AlphaLisa. Because IL-2 signals through JAK3, this assay provides a measure of JAK3 cellular potency.
Compounds were serially diluted in DMSO and dispensed acoustically to empty wells. Assay media (phenol red-free DMEM (Life Technologies) supplemented with 10% FBS (ATCC)) was dispensed (4 μL/well) and plates shaken at 900 rpm for 10 mins. Cells were seeded at 45,000 cells/well in assay media (4 μL/well), and incubated at 37° C., 5% CO2 for 1 hour, followed by the addition of IL-2 (R&D Systems; final concentration 300 ng/ml) in pre-warmed assay media (4 μL) for 30 minutes. After cytokine stimulation, cells were lysed with 6 ul of 3× AlphaLisa Lysis Buffer (PerkinElmer) containing 1× PhosStop and Complete tablets (Roche). The lysate was shaken at 900 rpm for 10 minutes at room temperature (RT). Phosphorylated STAT5 was measured via the pSTAT5 AlphaLisa kit (PerkinElmer). Freshly prepared acceptor bead mixture was dispensed onto lysate (5 μL) under green filtered <100 lux light. Plates were shaken at 900 rpm for 2 mins, briefly spun down, and incubated for 2 hrs at RT in the dark. Donor beads were dispensed (5 μL) under green filtered <100 lux light. Plates were shaken at 900 rpm for 2 minutes, briefly spun down, and incubated overnight at RT in the dark.
To determine the inhibitory potency of test compounds in response to IL-2, the average emission intensity of beads bound to pSTAT5 was measured in a human T cell line. IC50 values were determined from analysis of the inhibition curves of signal intensity versus compound concentration. Data are expressed as pIC50 (negative decadic logarithm IC50) values (mean±standard deviation).

JAK3 = molecular target: T1, JAK3 (Homo sapiens, UniProt P52333); assay: Biochemical JAK3 kinase assay (LanthaScreen); set-up: GST; purchased Life Technologies; details: for Ki: read-out: JAK 3 (pKi) (converted)
T1 sequence (P52333 1-1124): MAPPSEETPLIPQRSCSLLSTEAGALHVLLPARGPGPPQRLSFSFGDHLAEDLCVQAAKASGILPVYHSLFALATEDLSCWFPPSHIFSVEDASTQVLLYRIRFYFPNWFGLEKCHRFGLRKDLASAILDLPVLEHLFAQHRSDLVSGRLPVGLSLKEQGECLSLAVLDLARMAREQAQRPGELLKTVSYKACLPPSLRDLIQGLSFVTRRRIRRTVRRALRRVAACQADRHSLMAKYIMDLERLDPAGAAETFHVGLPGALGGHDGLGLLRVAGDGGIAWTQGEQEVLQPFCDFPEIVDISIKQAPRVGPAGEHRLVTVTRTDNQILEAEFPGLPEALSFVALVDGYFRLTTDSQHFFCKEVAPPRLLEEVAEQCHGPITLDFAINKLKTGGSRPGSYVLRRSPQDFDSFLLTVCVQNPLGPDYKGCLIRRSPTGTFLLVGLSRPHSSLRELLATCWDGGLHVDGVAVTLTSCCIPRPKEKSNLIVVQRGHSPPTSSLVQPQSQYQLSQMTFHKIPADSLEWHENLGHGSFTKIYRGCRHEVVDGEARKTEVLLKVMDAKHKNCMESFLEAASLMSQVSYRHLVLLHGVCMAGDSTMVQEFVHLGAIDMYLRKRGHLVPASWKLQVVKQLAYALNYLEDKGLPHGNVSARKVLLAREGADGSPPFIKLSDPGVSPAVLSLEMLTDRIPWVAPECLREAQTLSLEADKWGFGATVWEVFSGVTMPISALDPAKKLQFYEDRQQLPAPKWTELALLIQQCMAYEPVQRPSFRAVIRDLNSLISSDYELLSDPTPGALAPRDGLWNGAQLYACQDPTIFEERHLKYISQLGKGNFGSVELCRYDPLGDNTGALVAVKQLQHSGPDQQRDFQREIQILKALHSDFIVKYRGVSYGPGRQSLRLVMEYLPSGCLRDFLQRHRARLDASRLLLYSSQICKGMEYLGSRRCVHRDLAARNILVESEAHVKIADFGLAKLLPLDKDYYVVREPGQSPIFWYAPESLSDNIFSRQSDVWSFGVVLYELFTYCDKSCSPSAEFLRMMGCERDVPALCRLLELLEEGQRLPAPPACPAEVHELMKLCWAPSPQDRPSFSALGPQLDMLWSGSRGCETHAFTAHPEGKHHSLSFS
Procedure: (§1) A panel of four LanthaScreen JAK biochemical assays (JAK1, 2, 3 and Tyk2) were carried in a common kinase reaction buffer (50 mM HEPES, pH 7.5, 0.01% Brij-35, 10 mM MgCl2, and 1 mM EGTA). Recombinant GST-tagged JAK enzymes and a GFP-tagged STAT1 peptide substrate were obtained from Life Technologies.
(§2) Serially or discretely diluted compounds were pre-incubated with each of the four JAK enzymes and the substrate in white 384-well microplates (Corning) at ambient temperature for 1 h. ATP was subsequently added to initiate the kinase reactions in 10 μL total volume, with 1% DMSO. […] Kinase reactions were allowed to proceed for 1 hour at ambient temperature before a 10 μL preparation of EDTA (10 mM final concentration) and Tb-anti-pSTAT1 (pTyr701) antibody (Life Technologies, 2 nM final concentration) in TR-FRET dilution buffer (Life Technologies) was added. The plates were allowed to incubate at ambient temperature for 1 h before being read on the EnVision reader (Perkin Elmer). Emission ratio signals (520 nm/495 nm) were recorded and utilized to calculate the percent inhibition values based on DMSO and background controls.
(§3) For dose-response analysis, percent inhibition data were plotted vs. compound concentrations, and IC50 values were determined from a 4-parameter robust fit model with the Prism software (GraphPad Software). Results were expressed as pIC50 (negative logarithm of IC50) and subsequently converted to pKi (negative logarithm of dissociation constant, Ki) using the Cheng-Prusoff equation.

JAK1 = molecular target: T2, JAK1 (Homo sapiens, UniProt P23458); assay: Biochemical JAK1 kinase assay (LanthaScreen); details: for Ki: read-out: JAK 1 (pKi) (converted)
T2 construct: GST; purchased Life Technologies
T2 sequence (P23458 whole entry): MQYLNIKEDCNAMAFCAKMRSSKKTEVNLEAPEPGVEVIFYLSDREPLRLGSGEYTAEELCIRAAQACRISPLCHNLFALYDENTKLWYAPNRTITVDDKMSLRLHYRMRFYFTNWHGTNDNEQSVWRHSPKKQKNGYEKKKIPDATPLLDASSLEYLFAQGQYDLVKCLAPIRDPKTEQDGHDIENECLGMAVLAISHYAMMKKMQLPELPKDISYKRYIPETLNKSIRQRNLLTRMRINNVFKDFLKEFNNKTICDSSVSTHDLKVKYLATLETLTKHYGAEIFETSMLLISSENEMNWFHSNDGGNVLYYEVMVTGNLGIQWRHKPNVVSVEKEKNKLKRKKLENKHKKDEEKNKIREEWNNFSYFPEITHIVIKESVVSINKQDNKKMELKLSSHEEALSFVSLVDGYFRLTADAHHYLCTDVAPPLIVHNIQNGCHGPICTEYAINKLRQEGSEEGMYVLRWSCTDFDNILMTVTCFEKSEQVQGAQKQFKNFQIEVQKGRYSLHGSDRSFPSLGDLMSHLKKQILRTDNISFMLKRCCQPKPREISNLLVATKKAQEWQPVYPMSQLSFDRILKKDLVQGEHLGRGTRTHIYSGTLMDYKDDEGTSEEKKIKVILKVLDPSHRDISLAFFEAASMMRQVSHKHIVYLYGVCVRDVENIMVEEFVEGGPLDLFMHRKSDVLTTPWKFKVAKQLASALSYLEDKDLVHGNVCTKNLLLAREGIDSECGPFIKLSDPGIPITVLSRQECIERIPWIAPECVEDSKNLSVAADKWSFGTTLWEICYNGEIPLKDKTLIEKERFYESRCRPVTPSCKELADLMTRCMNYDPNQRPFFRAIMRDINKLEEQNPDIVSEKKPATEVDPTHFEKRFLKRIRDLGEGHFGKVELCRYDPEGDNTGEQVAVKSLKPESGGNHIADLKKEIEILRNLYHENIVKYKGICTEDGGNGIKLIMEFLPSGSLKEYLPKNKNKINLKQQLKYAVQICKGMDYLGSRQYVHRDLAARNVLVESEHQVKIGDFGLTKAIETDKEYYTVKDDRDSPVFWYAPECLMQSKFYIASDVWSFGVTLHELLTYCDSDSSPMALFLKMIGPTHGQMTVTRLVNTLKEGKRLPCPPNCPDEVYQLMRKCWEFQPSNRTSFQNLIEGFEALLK
Procedure: as §1, §2, §3

[2] = TALL-1, IL-2 stimulated pSTAT5 in Tall-1 T cells
[3] = selectivity: difference of pKi JAK3 and pKi JAK1

SMILES	IC50 [1, 2]	Ki (JAK3)	JAK3 (pKi)-JAK1 (pKi) (JAK3; [3])	Ki (JAK1)	Tall-1 (pIC50) [1]	JAK 3 (pKi) (JAK3)	JAK 1 (pKi) (JAK1)	IC50 ([1]; TALL-1, IL-2 stimulated pSTAT5, Tall-1 T cells)	JAK3 (pKi)-JAK1 (pKi) (JAK3; selectivity JAK3 over JAK1, difference of pKi)
CN(C)C/C=C/C(=O)N1CC[C@H](Oc2nc(-c3ccc(O)c(F)c3)cc3[nH]ncc23)C1 [Compound 1-28]	200 to 1000 nM	0.1 to 1 nM	B (a value of 2.3 to 3)	> 100 nM	–	–	–	–	–
C=CC(=O)N1CC[C@H](Oc2cc(-c3cc(F)c(O)cc3F)cc3[nH]nc(C)c23)C1 [Compound 1-30]	31.6 to 200 nM	< 0.1 nM	B (a value of 2.3 to 3)	10 to 100 nM	–	–	–	–	–
C=CC(=O)N1CC[C@H](Oc2cc(-c3ccc(O)c(Cl)c3)nc3[nH]nc(C)c23)C1 [Compound 1-32]	200 to 1000 nM	0.1 to 1 nM	A (a value of 3 or above)	> 100 nM	–	–	–	–	–
C=CC(=O)N1CC[C@H](Oc2nc(-c3ccc(O)c(Cl)c3)cc3[nH]nc(C)c23)C1 [Compound 1-35]	< 31.6 nM	< 0.1 nM	A (a value of 3 or above)	10 to 100 nM	–	–	–	–	–
C=CC(=O)N1CC[C@H](Oc2nc(-c3ccc(O)c(Cl)c3)nc3[nH]nc(C)c23)C1 [Compound 1-37]	200 to 1000 nM	0.1 to 1 nM	A (a value of 3 or above)	> 100 nM	–	–	–	–	–
C=CC(=O)N1CC[C@H](Oc2cc(-c3ccc(O)cc3)cc3[nH]nc(SC)c23)C1 [Compound 1-39]	31.6 to 200 nM	0.1 to 1 nM	A (a value of 3 or above)	> 100 nM	–	–	–	–	–
C=CC(=O)N1CC[C@H](Oc2cc(-c3ccc(O)cc3)cc3[nH]nc(N(C)C)c23)C1 [Compound 1-42]	200 to 1000 nM	0.1 to 1 nM	A (a value of 3 or above)	> 100 nM	–	–	–	–	–
C=CC(=O)N1CC[C@H](Oc2cc(-c3ccc(O)cc3)cc3[nH]nc(C(F)(F)F)c23)C1 [Compound 1-43]	< 31.6 nM	< 0.1 nM	A (a value of 3 or above)	> 100 nM	–	–	–	–	–
CN(C)C/C=C/C(=O)N1CC[C@H](Oc2cc(-c3ccc(O)cc3)cc3[nH]nc(Cl)c23)C1 [Compound 1-48]	–	–	B (a value of 2.3 to 3)	–	B (a pIC50 value between 6.7 (included) and 7.5 (IC50 between 200 nM and 32 nM))	C (a pKi value between 8 and 9 (Ki between 10 nM and 1 nM))	E (a pKi value of 7 or below (Ki of 100 nM or above))	–	–
CN(C)C/C=C/C(=O)N1CC[C@H](COc2cc(-c3ccc(O)cc3)cc3[nH]ncc23)C1 [Compound 2-1]	–	–	B (a value of 2.3 to 3)	–	C (a pIC50 value between 6 and 6.7 (IC50 between 1 μM and 200 nM))	A (a pKi value≥10 (Ki≤0.1 nM))	D (a pKi value between 7 and 8 (Ki between 100 nM and 10 nM))	–	–
CN(C)C/C=C/C(=O)N1CCC(C)(Oc2cc(-c3ccc(O)cc3)cc3[nH]ncc23)CC1 [Compound 6-9]	–	–	–	–	–	–	–	31.6 to 200 nM	A (a value of 3 or above)
